Test results: PMC12169475 (ACS Medicinal Chemistry Letters, 2025)
Where two headings read alike, the source gives them in different places. Ends that are not written are not given here.

How the values were obtained:
[1] = tested on: A. baumannii NICD 15283 (C); set-up: key: S - Susceptible; R - Resistant; I – Intermediate; details: A. baumannii NICD 15283 clinical isolate; ref NICD; cited from earlier work
[2] = tested on: E. cloacae NICD 16103 (C); set-up: key: S - Susceptible; R - Resistant; I – Intermediate; details: E. cloacae NICD 16103 clinical isolate; ref NICD; cited from earlier work
P. aeruginosa PAO1 = details: for Modal MIC: P. aeruginosa PAO1, cation-adjusted MHB, ~5 x 10^5 CFU/mL, 37°C 20 h, OD600, n = 6; for Selectivity index (HaCat LC50 / MIC): P. aeruginosa PAO1 over HaCat cells
Protocol: (§1) Antibacterial activity against a panel of standard laboratory strains and clinical isolates.
(§2) Antimicrobial activity was evaluated against a panel of Gram-negative bacteria maintained by H3D, University of Cape Town, consisting of six laboratory reference strains and two clinical isolates. Briefly, bacterial colonies from an LB agar plate were picked and cultured in cation-adjusted Mueller Hinton broth (MHB) at 37°C with 180 rpm shaking, overnight. Cultures were […]
(§3) back diluted to reach a starting optical density at 600 nm (OD600) of 0.1 and then diluted 100- […]
(§4) media down polypropylene 96-well plates. Inoculum was added at a 1:1 ratio resulting in a […]
(§5) (Suppl. Table S2). Plates were incubated at 37°C for 20 h and the OD600 determined. Minimum inhibition concentrations (MICs) were determined from a minimum of three biological repeats. […]
(§6) the background absorbance.
(§7) Caution! All bacterial work was conducted using appropriate biosafety level 2 (BSL-2) practices.
(§8) Clinical isolates and reference strains were handled in a biosafety cabinet with proper PPE to prevent exposure and contamination.

[3] = tested on: K. pneumoniae ATCC BAA-1705; details: for Modal MIC: K. pneumoniae ATCC BAA-1705, cation-adjusted MHB, ~5 x 10^5 CFU/mL, 37°C 20 h, OD600, n = 6; for Selectivity index (HaCat LC50 / MIC): K. pneumoniae ATCC BAA-1705 over HaCat cells
Protocol: as §1, §2, §3, §4, §5, §6, §7, §8

E. coli ATCC 700928 = details: for Modal MIC: E. coli ATCC 700928, cation-adjusted MHB, ~5 x 10^5 CFU/mL, 37°C 20 h, OD600, n = 6; for Selectivity index (HaCat LC50 / MIC): E. coli ATCC 700928 over HaCat cells
Protocol: as §1, §2, §3, §4, §5, §6, §7, §8

[4] = tested on: A. baumannii NICD 15283 (C); details: for Modal MIC: A. baumannii NICD 15283 clinical isolate, cation-adjusted MHB, ~5 x 10^5 CFU/mL, 37°C 20 h, OD600, n = 6; for Selectivity index (HaCat LC50 / MIC): A. baumannii NICD 15283 clinical isolate over HaCat cells
Protocol: as §1, §2, §3, §4, §5, §6, §7, §8

A. baumannii ATCC 19606 = details: for Modal MIC: A. baumannii ATCC 19606, cation-adjusted MHB, ~5 x 10^5 CFU/mL, 37°C 20 h, OD600, n = 6; for Selectivity index (HaCat LC50 / MIC): A. baumannii ATCC 19606 over HaCat cells
Protocol: as §1, §2, §3, §4, §5, §6, §7, §8

E. cloacae ATCC 700323 = details: for Modal MIC: E. cloacae ATCC 700323, cation-adjusted MHB, ~5 x 10^5 CFU/mL, 37°C 20 h, OD600, n = 6; for Selectivity index (HaCat LC50 / MIC): E. cloacae ATCC 700323 over HaCat cells
Protocol: as §1, §2, §3, §4, §5, §6, §7, §8

[5] = tested on: E. cloacae NICD 16103 (C); details: for Modal MIC: E. cloacae NICD 16103 clinical isolate, cation-adjusted MHB, ~5 x 10^5 CFU/mL, 37°C 20 h, OD600, n = 6; for Selectivity index (HaCat LC50 / MIC): E. cloacae NICD 16103 clinical isolate over HaCat cells
Protocol: as §1, §2, §3, §4, §5, §6, §7, §8

E. coli ATCC 25922 = details: for Modal MIC: E. coli ATCC 25922, cation-adjusted MHB, ~5 x 10^5 CFU/mL, 37°C 20 h, OD600, triplicate experiments in duplicate (n = 6); for Selectivity index (HaCat LC50 / MIC): E. coli ATCC 25922 over HaCat cells
Protocol: as §1, §2, §3, §4, §5, §6, §7

HaCat cells [6] = details: previously reported, ref Van der Walt et al.; cited from earlier work
Protocol: The toxicity of the analogues was assessed against HaCat cells, which serve as a relevant model for the intended topical application of these peptides in burn wound care.

mammalian erythrocytes = details: previously reported, ref Van der Walt et al.; cited from earlier work
E. cloacae NICD 16103 = format: cell-based, Enterobacter cloacae; details: then MIC 20 h 37°C; for MIC after trypsin treatment: trypsin 0.15 U/mL pH 7.4 (picture: 1 mM), 1 h 37°C, inactivated 60°C 20 min
HepG2 cells = details: previously reported, ref Van der Walt et al.; cited from earlier work
HaCat cells [7] = assay: In vitro cytotoxicity screening against epidermal HaCat cells (MTT); details: 24 h exposure in total (21 h + 3 h MTT), OD570, three independent experiments in duplicate (n = 6)

Compound	Antimicrobial susceptibility profile [1]	Antimicrobial susceptibility profile [2]	Modal MIC (P. aeruginosa PAO1)	Modal MIC [3]	Modal MIC (E. coli ATCC 700928)	Modal MIC [4]	Modal MIC (A. baumannii ATCC 19606)	Modal MIC (E. cloacae ATCC 700323)	Modal MIC [5]	Modal MIC (E. coli ATCC 25922)	further results
NCC[C@H](O)C(=O)N[C@@H]1C[C@H](N)[C@@H](O[C@H]2O[C@H](CN)[C@@H](O)[C@H](O)[C@H]2O)[C@H](O)[C@H]1O[C@H]1O[C@H](CO)[C@@H](O)[C@H](N)[C@H]1O [Amikacin]	R	S	–	–	–	–	–	–	–	–	–
O=C(O)c1cn(C2CC2)c2cc(N3CCNCC3)c(F)cc2c1=O [Ciprofloxacin, reference compound]	–	–	0.5 µg/mL	> 32 µg/mL	0.25 µg/mL	–	–	–	–	–	–
CNC(C)C1CCC(N)C(OC2C(N)CC(N)C(OC3OCC(C)(O)C(NC)C3O)C2O)O1 (centres unmarked) [Gentamicin, reference compound]	R	R	4 µg/mL	1/2	0.5 µg/mL	16/32	32 µg/mL	2 µg/mL	> 32 µg/mL	0.5 µg/mL	–
C[C@@H](O)[C@H]1C(=O)N2C(C(=O)O)=C(SCCN=CN)C[C@H]12 [Imipenem]	R	R	–	–	–	–	–	–	–	–	–
CC[C@H](C)[C@H](NC(=O)CN)C(=O)NCC(=O)N[C@@H](C)C(=O)N[C@H](C(=O)N[C@@H](CC(C)C)C(=O)N[C@@H](CCCCN)C(=O)N[C@H](C(=O)N[C@@H](CC(C)C)C(=O)N[C@H](C(=O)N[C@H](C(=O)NCC(=O)N[C@@H](CC(C)C)C(=O)N1CCC[C@H]1C(=O)N[C@@H](C)C(=O)N[C@@H](CC(C)C)C(=O)N[C@H](C(=O)N[C@@H](CO)C(=O)N[C@@H](Cc1c[nH]c2ccccc12)C(=O)N[C@H](C(=O)N[C@@H](CCCCN)C(=O)N[C@@H](CCCNC(=N)N)C(=O)N[C@@H](CCCCN)C(=O)N[C@@H](CCCNC(=N)N)C(=O)N[C@@H](CCC(N)=O)C(=O)N[C@@H](CCC(N)=O)C(N)=O)[C@@H](C)CC)[C@@H](C)CC)[C@@H](C)O)[C@@H](C)O)C(C)C)C(C)C [Melittin, reference compound]	–	–	2 µg/mL	–	4 µg/mL	4 µg/mL	–	–	8 µg/mL	–	–
C[C@@H](O)[C@H]1C(=O)N2C(C(=O)O)=C(S[C@@H]3CN[C@H](C(=O)N(C)C)C3)[C@H](C)[C@H]12 [Meropenem, reference compound]	R	R	–	–	–	32 µg/mL	–	–	16 µg/mL	–	–
CC1(C)[C@H](C(=O)O)N2C(=O)C[C@H]2S1(=O)=O [Sulbactam]	I	R	–	–	–	–	–	–	–	–	–
CN(C)[C@@H]1C(O)=C(C(N)=O)C(=O)[C@@]2(O)C(O)=C3C(=O)c4c(O)cccc4[C@@](C)(O)[C@H]3C[C@@H]12 [Tetracycline]	R	R	–	–	–	–	–	–	–	–	–
NC[C@H]1O[C@H](O[C@H]2[C@H](O)[C@@H](O[C@H]3O[C@H](CO)[C@@H](O)[C@H](N)[C@H]3O)[C@H](N)C[C@@H]2N)[C@H](N)C[C@@H]1O [Tobramycin]	R	R	–	–	–	–	–	–	–	–	–
GKVWDWIKSTAKKLWN-NH2 [Opis16a]	–	–	–	–	–	–	–	–	–	–	HaCat toxicity LC50 + SD (HaCat cells [6]): 311 ± 12 µg/mL; HC50 (mammalian erythrocytes): > 256 µg/mL; MIC in FCS (20%) (E. cloacae NICD 16103; peptide preincubated in 20% FCS 1 h at 37°C): 64 µg/mL; MIC after trypsin treatment (E. cloacae NICD 16103): > 32 µg/mL; LC50 (HepG2 cells): 118 ± 8 µg/mL
GKVWKWIKSTAKKLWN-NH2 [Opis16aD5K]	–	–	8 µg/mL	16 µg/mL	–	8 µg/mL	8 µg/mL	16 µg/mL	8 µg/mL	16 µg/mL	Selectivity index (HaCat LC50 / MIC) [4]: 18.5; Selectivity index (HaCat LC50 / MIC) (P. aeruginosa PAO1): 18.5; Selectivity index (HaCat LC50 / MIC) (A. baumannii ATCC 19606): 18.5; Selectivity index (HaCat LC50 / MIC) [3]: 9.27; Selectivity index (HaCat LC50 / MIC) (E. cloacae ATCC 700323): 9.27; Selectivity index (HaCat LC50 / MIC) [5]: 18.5; HaCat toxicity LC50 + SD (HaCat cells [7]): 148 ± 6 µg/mL
GKVWKWIKSTARRLWN-NH2 [Opis16aCterKR]	–	–	4 µg/mL	8 µg/mL	4 µg/mL	8 µg/mL	4 µg/mL	8 (8×) μg/mL	4 (4×) μg/mL	8 (8×) μg/mL	Selectivity index (HaCat LC50 / MIC) [4]: 22.6; Selectivity index (HaCat LC50 / MIC) (P. aeruginosa PAO1): 45.2; Selectivity index (HaCat LC50 / MIC) (A. baumannii ATCC 19606): 45.2; Selectivity index (HaCat LC50 / MIC) [3]: 22.6; Selectivity index (HaCat LC50 / MIC) (E. cloacae ATCC 700323): 22.6; Selectivity index (HaCat LC50 / MIC) [5]: 45.2; Selectivity index (HaCat LC50 / MIC) (E. coli ATCC 700928): 45.2; HaCat toxicity LC50 + SD (HaCat cells [7]): 181 ± 8 µg/mL; MIC after trypsin treatment (E. cloacae NICD 16103): > 32 µg/mL; Selectivity index (HaCat LC50 / MIC) (E. coli ATCC 25922): 22.6
GRVWRWIKSTAKKLWN-NH2 [Opis16aNterKR]	–	–	4 µg/mL	16 µg/mL	4 µg/mL	8 µg/mL	4 µg/mL	16 µg/mL	8 µg/mL	8 (8×) μg/mL	Selectivity index (HaCat LC50 / MIC) [4]: 17.3; Selectivity index (HaCat LC50 / MIC) (P. aeruginosa PAO1): 34.6; Selectivity index (HaCat LC50 / MIC) (A. baumannii ATCC 19606): 34.6; Selectivity index (HaCat LC50 / MIC) [3]: 8.64; Selectivity index (HaCat LC50 / MIC) (E. cloacae ATCC 700323): 8.64; Selectivity index (HaCat LC50 / MIC) [5]: 17.3; Selectivity index (HaCat LC50 / MIC) (E. coli ATCC 700928): 34.6; HaCat toxicity LC50 + SD (HaCat cells [7]): 138 ± 14 µg/mL; Selectivity index (HaCat LC50 / MIC) (E. coli ATCC 25922): 17.3
GRVWRWIRSTARRLWN-NH2 [Opis16aKR]	–	–	4 µg/mL	16 µg/mL	4 µg/mL	8 µg/mL	4 µg/mL	8 (8×) μg/mL	4 (4×) μg/mL	8 (8×) μg/mL	Selectivity index (HaCat LC50 / MIC) [4]: 16.4; Selectivity index (HaCat LC50 / MIC) (P. aeruginosa PAO1): 32.9; Selectivity index (HaCat LC50 / MIC) (A. baumannii ATCC 19606): 32.9; Selectivity index (HaCat LC50 / MIC) [3]: 8.21; Selectivity index (HaCat LC50 / MIC) [5]: 32.9; Selectivity index (HaCat LC50 / MIC) (E. coli ATCC 700928): 32.9; HaCat toxicity LC50 + SD (HaCat cells [7]): 131 ± 5 µg/mL; Selectivity index (HaCat LC50 / MIC) (E. coli ATCC 25922): 16.4
Polymyxin B [reference compound]	–	–	–	0.5 µg/mL	0.5 µg/mL	1 µg/mL	1 µg/mL	0.25 µg/mL	–	0.25 µg/mL	–
